Each structure is given as a SMILES string.

What is called melting point is the temperature, or range, at which the solid turns liquid. For `O=C(O)c1cc(S(=O)(=O)N2CCOCC2)ccc1Br`, the melting point is 188 to 190 °C.
In the case of `Nc1cc(C(=O)O)c2ccccc2c1` it was 178 to 180 °C; in that of `NNc1ccc(S(=O)(=O)N2CCCC2)cn1`, 164 to 166 °C; in that of `O=C1CCN(c2ccccc2)C1`, 94 to 96 °C.
As to `OCc1cc(Cl)cc2c1OCC2`, the melting point was in the range of 97 to 99 °C.
In the case of `COc1ccc(Br)cc1C(=O)C(=O)O` it was 137 to 139 °C.
In the case of `O=C(O)c1ccc(Cl)c(S(=O)(=O)Nc2ccccc2N2CCOCC2)c1` it was 178 to 180 °C; in that of `CN(C)CC(N)=NO`, 135 to 137 °C.
The molecule `Cc1sc(N)nc1C(C)C` displayed a melting point of 107 to 109 °C.
Take `CC(C)Oc1cccc(CNC(=O)CCl)c1`: the melting point is 69 to 71 °C.
With `Fc1cc2nc(CCl)[nH]c2cc1F`, the melting point was in the range of 150 to 152 °C.
Next, `Nc1cccc(Cn2nc3ccccn3c2=O)c1`: 127 to 129 °C; `CC(O)(c1ccc([N+](=O)[O-])cc1)C(F)(F)F` (stereo unspecified): 86 to 88 °C.
Consider `Cc1cccc(C(CO)N2CCNCC2)c1` (stereo unspecified), for which the melting point was 81 to 83 °C.
`N#CCC1C(=O)Nc2ccccc21` (stereo unspecified): the melting point fell in the range of 161 to 163 °C.
Next, `Fc1ccc(-c2nnc(S)o2)cc1`: 204 to 206 °C; `Cc1nn(-c2ccccc2)c(C(F)(F)F)c1C(=O)O`: 146 to 148 °C; `O=C(O)c1cccc(Oc2ccc(Cl)cc2)c1`: 164 to 166 °C.
Next, `CC=Cc1ccc(OCC(=O)O)c(OC)c1`: 117 to 119 °C; `NC(=NO)c1ccc(Br)s1`: 124 to 126 °C; `CSc1nccn1-c1cccc(C(=O)O)c1`: 225 to 227 °C.
Next, `N#Cc1cccc(CS(=O)(=O)NN)c1`: 139 to 141 °C; `O=C1C(Br)CCCN1c1ccccc1F` (stereo unspecified): 54 to 56 °C.
With `NCc1cc(Br)c[nH]1`, the melting point lay in the range of 105 to 107 °C.
Take `Oc1ccccc1-c1nnc2n1CCCCC2`: the melting point fell in the range of 271 to 273 °C.
`O=C(O)c1ccc(-n2cncn2)nc1` showed a melting point of 341 to 343 °C.
Next, `CN(C)C(=O)c1ccc(Cl)c(S(N)(=O)=O)c1`: 130 to 132 °C; `O=C(O)c1cc(C2CC2)nc2ccc(Cl)cc12`: 211 to 213 °C; `CC(Sc1ncn[nH]1)C(=O)O` (stereo unspecified): 173 to 175 °C.
For `Cn1c(-c2ccccn2)cccc1=O`, the melting point fell in the range of 66 to 68 °C.
Next, `COC(=O)c1cc(N)cc(Cl)c1`: 95 to 97 °C; `N#C/C(=C/c1c[nH]nc1-c1cccc(Br)c1)C(=O)O`: 258 to 260 °C.
In the case of `O=C(O)c1cccc(OCC(F)(F)F)n1` it was 138 to 140 °C.
Next, `N#CCc1cccc2cccnc12`: 84 to 86 °C; `CCOC(=O)c1cc(F)ccc1S(=O)(=O)Cl`: 69 to 71 °C; `Nc1cccc(C(=O)CCC(=O)O)c1`: 126 to 128 °C.
On to `CC1(C)NC(=O)c2ccccc2O1`, for which the melting point lay within 131 to 133 °C.
`O=C(O)c1cc(NS(=O)(=O)c2ccc(Cl)c([N+](=O)[O-])c2)ccc1O`: the melting point fell in the range of 239 to 241 °C.
Next, `Cc1cccc(NC(=S)NN)c1C`: 170 to 172 °C.
Take `CC(C)OC(=S)Nc1ccc(C#N)c(Cl)c1`: the melting point lay in the range of 156 to 158 °C.
In turn, `Cc1nc[nH]n1` had a melting point of 89 to 91 °C.
`COc1cc(OC)cc(C(=O)c2c(N)sc3c2CCC(C)C3)c1` (stereo unspecified) registered a melting point of 162 to 164 °C.
`CNS(=O)(=O)c1ccc(CCC(=O)O)cc1` displayed a melting point of 188 to 190 °C.
In the case of `Cc1cccc(C(N)=O)c1N` it was 145 to 147 °C.
Molecule `O=S(=O)(Cl)c1cc2ccc(Cl)nc2cc1F` gave a melting point of 128 to 130 °C.
Next, `O=C(CCl)c1ccc(Oc2ccccc2)cc1`: 54 to 56 °C.
Regarding `Sc1nncn1C1CC1`, the melting point lay in the range of 189 to 191 °C.
Consider `NC(=O)C1CNCCN1` (stereo unspecified), for which the melting point lay within 142 to 144 °C.
The molecule `O=C(O)c1ccc2c(c1)S(=O)(=O)N(CC1CCCO1)C2=O` (stereo unspecified) came in with a melting point of 159 to 161 °C.
`CN1CCN(C(=O)c2ccccc2C(=O)O)CC1` showed a melting point of 274 to 276 °C.
`Nc1cc(CC2CC3CCC2C3)no1` (stereo unspecified) yielded a melting point of 86 to 88 °C.
Turning to `Nc1ccc(C2(c3ccc(N)cc3)CCCCC2)cc1`, the melting point is 110 to 112 °C.
Next, `NNC(=O)c1cc(-c2ccccc2)n[nH]1`: 207 to 209 °C.
Next, `O=C(O)Cn1c(=O)oc2cc([N+](=O)[O-])ccc21`: 214 to 216 °C; `O=C(O)C1CC1c1ccc(OC(F)F)cc1` (stereo unspecified): 73 to 75 °C.
`O=C(O)c1ccc(OC2CCC2)cc1` displayed a melting point of 191 to 193 °C.
Next, `CC(C)Oc1ccc(C(N)=O)cc1`: 166 to 168 °C; `Cc1nc(NCCc2ccccc2)sc1C(=O)O`: 170 to 172 °C; `CC(C)(C)OC(=O)N[C@@H]1CCCC[C@H]1N` (relative stereo): 76 to 78 °C.
The molecule `O=C(O)CN1C(=O)Cc2ccccc21` yielded a melting point of 220 to 222 °C.
Next, `O=C(O)c1cc(Cl)ccc1-n1cnnn1`: 198 to 200 °C; `COCCN(C)S(N)(=O)=O`: 34 to 36 °C.
Turning to `NC1(CO)Cc2ccccc2C1`, the melting point is 107 to 109 °C.
Next, `Cc1ccc2c(c1C)NC(=O)C2=O`: 228 to 232 °C.
In the case of `CN1CCC(O)(c2ccccc2)CC1` it was 111 to 113 °C; in that of `O=C(O)c1cc(-c2ccc(F)cc2)nc2ccccc12`, 193 to 197 °C.
Next, `CCOC(=O)c1ncon1`: 31 to 33 °C; `O=C(O)[C@@H]1C[C@H]1c1cccnc1` (relative stereo): 124 to 126 °C; `CCOc1ccc([N+](=O)[O-])cc1CCl`: 68 to 70 °C.
In the case of `Cc1ccoc1-c1nnc(N)s1`, the melting point was in the range of 153 to 155 °C.
The molecule `Cc1ccc(S(=O)(=O)N2CCC(=O)CC2)cc1` showed a melting point of 125 to 127 °C.
In turn, `Cc1ccc(-c2ccc(C(=O)O)c(F)c2)cc1C` came in with a melting point of 213 to 215 °C.
In the case of `O=C(NCC1CCCNC1)Nc1cccc(F)c1` (stereo unspecified) it was 123 to 125 °C; in that of `O=C(O)c1cc(F)cc2[nH]cnc12`, 339 to 341 °C; in that of `NC(=NO)c1ccc2c(c1)OCO2`, 164 to 166 °C.
`O=C1CC2(CCCC2)C(=O)N1` displayed a melting point of 105 to 107 °C.
`FC(F)(F)c1ccc2sc(S)nc2c1` displayed a melting point of 221 to 223 °C.
`Cc1ccc(C(N)=O)c(F)c1`: the melting point was 145 to 147 °C.
As for `O=C(O)c1cccc(OCc2ccc(Cl)cc2)c1`, the melting point was in the range of 171 to 173 °C.
Consider `O=C(O)c1cc(S(=O)(=O)N2CCOCC2)ccc1N1CCCCC1`, for which the melting point was in the range of 179 to 181 °C.
The molecule `COc1ccc2sc(C(=O)O)c(C)c2c1` gave a melting point of 254 to 256 °C.
Next, `Nc1ccc(S(=O)(=O)Nc2cccc(C(F)(F)F)c2)cc1`: 113 to 115 °C; `Cc1cc(O)nc(C(C)(C)C)n1`: 177 to 179 °C; `c1ccc(CCNc2nccs2)cc1`: 68 to 70 °C.
In the case of `CC(Cl)C(=O)Nc1ncccn1` (stereo unspecified) it was 148 to 150 °C; in that of `NC(=O)NCC1CCCNC1` (stereo unspecified), 83 to 85 °C.

(Values after a melting point compilation (Tetko et al.).)
